Laboratory results published in the NIST ThermoML archive (doi:10.1021/je0341256).
“And” between values parts separate entries of the source, which are not always exact repeats. Identical values can stand only once. Numbers after ± are expanded uncertainties.

Conditions: Liquid, Closed cell (Static) method

| vapor or sublimation pressure (332.06 K) [kPa] | vapor or sublimation pressure (332.08 K) | SMILES | also measured |
| --- | --- | --- | --- |
|  | 17.27 ± 0.4 kPa | CCC(C)O (centres undefined) [butan-2-ol] |  |
| 44.67 ± 0.43 |  | CCO [ethanol] |  |
|  | 80.97 ± 0.48 kPa | CO [methanol] |  |

Continued, compound first:

| SMILES | vapor or sublimation pressure (332.06 K) [kPa] | vapor or sublimation pressure (332.08 K) | also measured |
| --- | --- | --- | --- |
| CC(C)(C)O [2-methylpropan-2-ol] | 36.97 ± 0.42 |  |  |
| C/C=C/C [(E)-2-butene] | 605.74 ± 2.1 | 606.44 ± 2.1 kPa and 606.14 ± 2.1 kPa | vapor or sublimation pressure (332.04 K): 605.54 ± 2.1 kPa; vapor or sublimation pressure (332.07 K): 606.94 ± 2.1 kPa |
| CC(C)O [propan-2-ol] |  |  | vapor or sublimation pressure (332.03 K): 36.47 ± 0.42 kPa |
